Experimental data reported in patent publication US20250154109A1, “SODIUM CHANNEL BLOCKING COMPOUNDS, DERIVATIVES THEREOF, AND METHODS OF THEIR USE” (LATIGO BIOTHERAPEUTICS, INC, priority 2022, published 2025).
pIC50: −log10 of the molar value. Counter-ions that a name gives are not always drawn.

How the values were obtained:
[1] = biological target: T1, human Nav1.8 (Homo sapiens, UniProt Q9Y5Y9); assay: Sophion Qpatch II assay (automated patch clamp); type: cell-based; conditions: resting state block (TP1 measurement), human Nav1.8 HEK293 cells, read-out: P1 IC50
T1 sequence (Q9Y5Y9 whole entry): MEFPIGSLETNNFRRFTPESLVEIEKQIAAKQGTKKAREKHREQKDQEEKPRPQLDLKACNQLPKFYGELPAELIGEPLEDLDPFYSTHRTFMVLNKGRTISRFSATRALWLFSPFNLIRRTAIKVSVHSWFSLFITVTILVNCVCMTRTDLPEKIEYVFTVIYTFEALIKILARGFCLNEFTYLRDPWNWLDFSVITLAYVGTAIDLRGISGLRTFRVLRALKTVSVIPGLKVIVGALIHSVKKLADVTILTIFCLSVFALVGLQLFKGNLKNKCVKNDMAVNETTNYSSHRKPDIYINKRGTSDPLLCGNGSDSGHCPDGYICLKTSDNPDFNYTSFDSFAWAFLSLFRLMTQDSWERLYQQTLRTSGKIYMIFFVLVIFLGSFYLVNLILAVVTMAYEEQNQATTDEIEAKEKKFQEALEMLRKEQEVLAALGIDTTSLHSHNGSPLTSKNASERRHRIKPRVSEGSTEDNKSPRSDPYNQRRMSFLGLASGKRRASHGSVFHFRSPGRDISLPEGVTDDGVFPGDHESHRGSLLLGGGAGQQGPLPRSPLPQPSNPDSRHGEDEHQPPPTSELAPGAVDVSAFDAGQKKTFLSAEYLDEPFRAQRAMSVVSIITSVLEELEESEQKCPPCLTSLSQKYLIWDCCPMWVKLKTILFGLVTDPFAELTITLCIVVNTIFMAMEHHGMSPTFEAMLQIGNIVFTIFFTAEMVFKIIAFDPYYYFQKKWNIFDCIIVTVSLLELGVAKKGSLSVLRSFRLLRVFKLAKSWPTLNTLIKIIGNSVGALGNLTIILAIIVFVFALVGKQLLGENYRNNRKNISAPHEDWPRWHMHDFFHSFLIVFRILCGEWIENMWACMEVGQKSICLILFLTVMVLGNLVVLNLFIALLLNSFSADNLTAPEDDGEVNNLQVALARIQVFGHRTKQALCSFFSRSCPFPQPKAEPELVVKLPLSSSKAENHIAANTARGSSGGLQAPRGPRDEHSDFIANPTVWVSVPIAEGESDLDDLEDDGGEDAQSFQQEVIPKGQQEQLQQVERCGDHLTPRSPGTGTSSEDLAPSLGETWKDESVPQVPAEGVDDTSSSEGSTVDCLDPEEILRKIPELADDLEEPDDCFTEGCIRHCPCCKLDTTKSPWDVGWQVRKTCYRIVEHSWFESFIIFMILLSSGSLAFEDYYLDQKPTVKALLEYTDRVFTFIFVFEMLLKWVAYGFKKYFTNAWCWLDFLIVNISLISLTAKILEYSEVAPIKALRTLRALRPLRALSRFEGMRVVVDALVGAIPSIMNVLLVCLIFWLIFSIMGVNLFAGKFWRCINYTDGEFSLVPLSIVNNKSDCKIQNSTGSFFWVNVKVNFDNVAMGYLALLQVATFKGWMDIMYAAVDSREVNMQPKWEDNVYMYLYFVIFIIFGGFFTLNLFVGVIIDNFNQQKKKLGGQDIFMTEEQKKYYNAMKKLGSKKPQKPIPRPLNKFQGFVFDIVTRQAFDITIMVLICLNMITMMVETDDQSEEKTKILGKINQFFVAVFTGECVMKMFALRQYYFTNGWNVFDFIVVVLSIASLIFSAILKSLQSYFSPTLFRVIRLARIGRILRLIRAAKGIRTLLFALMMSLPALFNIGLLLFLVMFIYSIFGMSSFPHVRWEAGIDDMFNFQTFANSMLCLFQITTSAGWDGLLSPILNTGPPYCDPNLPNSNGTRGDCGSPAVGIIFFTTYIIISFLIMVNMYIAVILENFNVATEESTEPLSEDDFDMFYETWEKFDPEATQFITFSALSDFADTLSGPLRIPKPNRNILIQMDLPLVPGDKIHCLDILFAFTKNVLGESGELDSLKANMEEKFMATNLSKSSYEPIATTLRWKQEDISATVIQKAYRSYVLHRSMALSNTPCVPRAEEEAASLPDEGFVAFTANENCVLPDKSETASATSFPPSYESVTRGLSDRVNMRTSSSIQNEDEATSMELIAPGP
Experimental: Compounds were tested on recombinant human Nav1.8/01 stably transfected HEK293 (Eurofins, CYL3025, St. Charles, MO) cells using the Qpatch II system (Sophion Bioscience A/S, Ballerup—Denmark), an automated patch clamp device. Cells were cultured at 37° C./5% CO2 in DMEM/F-12 supplemented with 10% fetal bovine serum, lx Non-Essential Amino Acids, and selection antibiotics (0.625 μg/mL Puromycin, 400 μg/mL Geneticin, and 100 μg/mL Hygromycin). One or two days prior to recording, cells were moved to a lower temperature 30° C./5% CO2 incubator to increase surface expression of the channels. On the day of the recordings, cells in culture dishes were washed twice with Ca^2+—Mg^2+ free DPBS and treated with Detachin (Genlantis, San Diego) for 3 minutes and then resuspended in Serum Free Medium (EX-CELL® ACF CHO Medium for Cell Culture (Sigma-Aldrich) supplemented with 0.04 mg/mL soybean trypsin Inhibitor and 25 mM HEPES (all components supplied by Sigma-Aldrich, St. Louis, MO) and allowed to recover for a minimum of 20 minutes in the onboard Qstirrer. All experiments were performed at ambient temperature. Intracellular solution contained (mM): CsCl, 50; CsF, 90; MgCl2, 2; EGTA, 5; HEPES, 10; pH adjusted to 7.2 with CsOH. Extracellular solution contained (mM): NaCl, 137; KCl, 4; CaCl2), 3.8; MgCl2, 1; HEPES, 10; Glucose, 10; pH adjusted to 7.4 with NaOH. 500 nM tetrodotoxin (TTX) was added to the extracellular solution to block endogenous TTX-sensitive sodium currents.
Compounds were tested in an interleaved manner across two cohorts of wells to develop an aggregate 8-point concentration response curve. Final concentrations include 0.5% DMSO and 0.03% pluronic Acid. The concentration range spanned a range from 0.01-300 nM. Compounds were diluted 1:10 with extracellular solution within their respective cohort. (R)-2-(4-fluoro-2-methylphenoxy)-N-(3-(S-methylsulfonimidoyl)phenyl)-5-(trifluoromethyl)nicotinamide served as a positive control while DMSO (0.5% by volume) served as a vehicle control to ascertain assay performance.
Whole cell patch clamp recordings were conducted according to Sophion standard procedure for Qpatch II®. Cells were held at a holding potential of −120 mV. A depolarizing step to 10 mV for 30 ms was applied (TP1 measurement), followed by a hyperpolarization step to −100 mV for 20 ms. Due to instability observed at long depolarized potentials, there were no second TP2 measurements attempted. Inter-sweep interval was 15 sec. Following establishment of the whole-cell configuration in extracellular solution, cells were washed twice in extracellular solution containing 0.5% DMSO and 0.03% pluronic acid to stabilize the baseline current. Compounds were then applied by the Qpatch II system into each well in an ascending manner within cohort and the current was recorded for five minutes for each concentration. Percent of current remaining was determined by taking the average of the last 5 sweeps within each concentration and normalizing to the latest pre-compound saline period. The potency of the compounds was assessed on resting state block (TP1 measurement) only to obtain IC50 values. Wells whose initial sodium current magnitude were below 2 nA or whole cell resistance fell below 100 MQ were excluded from analysis.
Examples 220 to 224, Examples 237 to 257 and Example 259 are assayed using Sophion Qpatch II assay described above.

[2] = biological target: T1, human Nav1.8; assay: SyncroPatch384PE assay (automated patch clamp); type: cell-based; conditions: human Nav1.8/b3 CHO cells
[3] = inactivated state block (P2 measurement), read-out: P2 IC50
[4] = resting state block (P1 measurement), read-out: P1 IC50

Cc1c(C(F)(F)F)cnc(N2CCO[C@@H](C(F)(F)F)C2)c1C(=O)Nc1ccnc([S@](C)(=N)=O)c1 [Example 239, 4-methyl-N-(2-((R)—S-methylsulfonimidoyl)pyridin-4-yl)-5-(trifluoromethyl)-2-((R)-2-(trifluoromethyl)morpholino)nicotinamide]
pIC50 [1]: < 6.70

C[S@](=N)(=O)c1cc(NC(=O)c2cc(Cl)c(C(F)(F)F)cc2N2CCC(F)(F)CC2)ccc1F [Example 249, (S)-5-chloro-2-(4,4-difluoropiperidin-1-yl)-N-(4-fluoro-3-(S-methylsulfonimidoyl)phenyl)-4-(trifluoromethyl)benzamide]
pIC50 [1]: 7.00 to 7.30

Cc1c(C(=O)Nc2cccc([S@@](C)(=O)=NC(=O)CO)c2)c(N2CCCC(F)(F)CC2)nc(C(F)(F)F)c1-c1cnn(C)c1 [Example 191, (R)-2-(4,4-difluoroazepan-1-yl)-N-(3-(N-(2-hydroxyacetyl)-S-methylsulfonimidoyl)phenyl)-4-methyl-5-(1-methyl-1H-pyrazol-4-yl)-6-(trifluoromethyl)nicotinamide]
pIC50 [2, 3]: ≥ 8.30 | pIC50 [2, 4]: ≥ 8.30

Cc1c(C(F)(F)F)cnc(N2CCCC(F)(F)CC2)c1C(=O)Nc1cccc([S@](C)(=N)=O)c1 [Example 164, (R)-2-(4,4-difluoroazepan-1-yl)-4-methyl-N-(3-(S-methylsulfonimidoyl)phenyl)-5-(trifluoromethyl)nicotinamide]
pIC50 [2, 3]: ≥ 8.30 | pIC50 [2, 4]: ≥ 8.30

Cc1c(-c2cccnc2)cnc(N2CCCC(F)(F)CC2)c1C(=O)Nc1cccc(S(C)(=N)=O)c1 (stereo not drawn) [Example 84, 6-(4,4-difluoroazepan-1-yl)-4-methyl-N-(3-(S-methylsulfonimidoyl)phenyl)-[3,3bipyridine]-5-carboxamide]
pIC50 [2, 3]: 7.30 to 8.30 | pIC50 [2, 4]: 7.00 to 7.30

Cc1c(-c2ccc(C(F)F)cc2)cnc(N2CCCC(F)(F)CC2)c1C(=O)Nc1cccc(S(C)(=N)=O)c1 (stereo not drawn) [Example 87, 2-(4,4-difluoroazepan-1-yl)-5-(4-(difluoromethyl)phenyl)-4-methyl-N-(3-(S-methylsulfonimidoyl)phenyl)nicotinamide]
pIC50 [2, 3]: ≥ 8.30 | pIC50 [2, 4]: ≥ 8.30

Cc1nc(N2CCNCC2)nc(N2CCCC(F)(F)CC2)c1C(=O)Nc1cccc([S@](C)(=N)=O)c1 [Example 161, (R)-4-(4,4-difluoroazepan-1-yl)-6-methyl-N-(3-(S-methylsulfonimidoyl)phenyl)-2-(piperazin-1-yl)pyrimidine-5-carboxamide]
pIC50 [2, 3]: < 6.70 | pIC50 [2, 4]: < 6.70

Cc1nc(N2CCCC(F)(F)CC2)c(C(=O)Nc2cccc(S(C)(=N)=O)c2)c(C)c1Cl (stereo not drawn) [Example 106, 5-chloro-2-(4,4-difluoroazepan-1-yl)-4,6-dimethyl-N-(3-(S-methylsulfonimidoyl)phenyl)nicotinamide]
pIC50 [2, 3]: ≥ 8.30 | pIC50 [2, 4]: ≥ 8.30

Cc1c(-c2ccc(F)cn2)cnc(N2CCCC(F)(F)CC2)c1C(=O)Nc1cccc(S(C)(=N)=O)c1 (stereo not drawn) [Example 112, 6(4,4-difluoroazepan-1-yl)-5-fluoro-4methyl-N-(3-(S-methylsulfonimidoyl)phenyl)-[2,3bipyridine]-5carboxamide]
pIC50 [2, 3]: 7.00 to 7.30 | pIC50 [2, 4]: 7.00 to 7.30

C[S@@](=N)(=O)c1cccc(NC(=O)c2cc(Cl)c(C(F)(F)F)cc2N2CCCC(F)(F)CC2)c1 [Example 77, (R)-5-chloro-2-(4,4-difluoroazepan-1-yl)-N-(3-(S-methylsulfonimidoyl)phenyl)-4-(trifluoromethyl)benzamide]
pIC50 [2, 3]: ≥ 8.30 | pIC50 [2, 4]: ≥ 8.30

Cc1nc(N2CCN(C)CC2)nc(N2CCCC(F)(F)CC2)c1C(=O)Nc1cccc([S@](C)(=N)=O)c1 [Example 157, (R)-4-(4,4-difluoroazepan-1-yl)-6-methyl-2-(4-methylpiperazin-1-yl)-N-(3-(S-methylsulfonimidoyl)phenyl)pyrimidine-5-carboxamide]
pIC50 [2, 3]: < 6.70 | pIC50 [2, 4]: < 6.70

O=C(Nc1cc[nH]c(=O)c1)c1nnc(C(F)(F)F)cc1N1CCCCCC1 [Example 36, 4-(Azepan-1-yl)-N-(2-oxo-1,2-dihydropyridin-4-yl)-6-(trifluoromethyl)pyridazine-3-carboxamide]
pIC50 [2, 3]: < 6.70 | pIC50 [2, 4]: < 6.70

Cc1c(C(F)(F)F)nnc(N2CCC3(CC2)CC3)c1C(=O)Nc1cccc(S(C)(=N)=O)c1 (stereo not drawn) [Example 94, 5-methyl-N-(3-(S-methylsulfonimidoyl)phenyl)-3-(6-azaspiro[2.5]octan-6-yl)-6-(trifluoromethyl)pyridazine-4-carboxamide]
pIC50 [2, 3]: < 6.70 | pIC50 [2, 4]: < 6.70

Cc1c(C(F)(F)F)cnc(N2CCCC(F)(F)CC2)c1C(=O)Nc1cccc([S@@](C)(=O)=NC(=O)[C@@H](C)O)c1 [Example 193, 2-(4,4-difluoroazepan-1-yl)-N-(3-((R)-N-((R)-2-hydroxypropanoyl)-S-methylsulfonimidoyl)phenyl)-4-methyl-5-(trifluoromethyl)nicotinamide]
pIC50 [2, 3]: ≥ 8.30 | pIC50 [2, 4]: ≥ 8.30

Cc1c(C(F)(F)F)cnc(N2CCCC(F)(F)CC2)c1C(=O)Nc1cccc([S@@](C)(=O)=NC(=O)C2(N)CCC2)c1 [Example 180, (R)-N-(3-(N-(1-aminocyclobutane-1-carbonyl)-S-methylsulfonimidoyl)phenyl)-2-(4,4-difluoroazepan-1-yl)-4-methyl-5-(trifluoromethyl)nicotinamide]
pIC50 [2, 3]: ≥ 8.30 | pIC50 [2, 4]: ≥ 8.30

CNCC(=O)N=[S@](C)(=O)c1cccc(NC(=O)c2c(N3CCCC(F)(F)CC3)ncc(C#N)c2C)c1 [Example 126, (R)-5-cyano-2-(4,4-difluoroazepan-1-yl)-4-methyl-N-(3-(S-methyl-N-(methylglycyl)sulfonimidoyl)phenyl)nicotinamide]
pIC50 [2, 3]: ≥ 8.30 | pIC50 [2, 4]: ≥ 8.30

Cc1c(C(N)=O)cnc(N2CCCC(F)(F)CC2)c1C(=O)Nc1cccc([S@](C)(=N)=O)c1 [Example 129, (R)-2-(4,4-difluoroazepan-1-yl)-4-methyl-N3-(3-(S-methylsulfonimidoyl)phenyl)pyridine-3,5-dicarboxamide]
pIC50 [2, 3]: < 6.70 | pIC50 [2, 4]: < 6.70

Cc1c(C(F)(F)F)nnc(N2CCCCCC2)c1C(=O)Nc1cccc([S@@](C)(=N)=O)c1 [Example 11, (S)-3-(azepan-1-yl)-5-methyl-N-(3-(S-methylsulfonimidoyl)phenyl)-6-(trifluoromethyl)pyridazine-4-carboxamide]
pIC50 [2, 3]: 6.70 to 7.00 | pIC50 [2, 4]: 6.70 to 7.00

Cc1c(-c2ccncc2)cnc(N2CCCC(F)(F)CC2)c1C(=O)Nc1cccc(S(C)(=N)=O)c1 (stereo not drawn) [Example 85, 6-(4,4-difluoroazepan-1-yl)-4-methyl-N-(3-(S-methylsulfonimidoyl)phenyl)-[3,4bipyridine]-5-carboxamide]
pIC50 [2, 3]: 7.00 to 7.30 | pIC50 [2, 4]: 7.00 to 7.30

Cc1c(-c2cnn(C)c2)cnc(N2CCCC(F)(F)CC2)c1C(=O)Nc1cccc([S@@](C)(=O)=NC(=O)C(C)(C)N)c1 [Example 52, (R)-N-(3-(N-(2-amino-2-methylpropanoyl)-S-methylsulfonimidoyl)phenyl)-2-(4,4-difluoroazepan-1-yl)-4-methyl-5-(1-methyl-1H-pyrazol-4-yl)nicotinamide formate]
pIC50 [2, 3]: 7.30 to 8.30 | pIC50 [2, 4]: 7.30 to 8.30

CS(=N)(=O)c1cccc(NC(=O)c2cc(C(F)(F)F)nnc2N2CCC3(CC2)CC3)c1 (stereo not drawn) [Example 14, N-(3-(S-methylsulfonimidoyl)phenyl)-3-(6-azaspiro[2.5]octan-6-yl)-6-(trifluoromethyl)pyridazine-4-carboxamide]
pIC50 [2, 3]: < 6.70 | pIC50 [2, 4]: < 6.70

Cc1c(F)cnc(N2CCCC(F)(F)CC2)c1C(=O)Nc1cccc([S@](C)(=N)=O)c1 [Example 168, (R)-2-(4,4-difluoroazepan-1-yl)-5-fluoro-4-methyl-N-(3-(S-methylsulfonimidoyl)phenyl)nicotinamide]
pIC50 [2, 3]: 7.30 to 8.30 | pIC50 [2, 4]: 7.30 to 8.30
